Results on two compounds are retold here after patent publication US9303044B2, “7-(piperazin-1-yl)-5H-[1,3,4]thiadiazolo[3,2-A]pyrimidin-5-ones for the treatment of thrombotic disorders” (The Rockefeller University, priority 2012, dated 2016).

The subject of the experiment is platelet aggregation. Kind of experiment: ADP-induced platelet aggregation assay in citrated platelet-rich plasma. Conditions: Homo sapiens, initial slopes, read-out: IC50, inhibition of platelet aggregation. It counts as cell-based. Here is the method: The platelet aggregation assay may be conducted by modification of the assay as disclosed in Blue et al., Blood 2008, 111, 1248, the contents of which are incorporated by reference in their entirety. Citrated platelet-rich plasma (PRP), may be generated by the centrifugation of whole blood at 650 g for 4 minutes at 22° C., and may then be incubated in aggregometer cuvettes with Compounds of the Invention (final concentration of 100 μM, 30 μM, 10 μM, 1 μM, 0.30 μM, 0.1 μM, 0.03 μM and 0.01 μM) or controls for 15 minutes at 37° C. After 30 seconds in the aggregometer (Bio/Data PAP8; Horsham, Pa.) at 37° C. with stiffing, ADP (5-20 μM) may be added to induce aggregation and the light transmittance is measured for 8 minutes. The initial slopes of aggregation in the presence of different concentrations of the Compound tested may be used to generate an IC50.

With `NCC(=O)Nc1cncc(-c2nn3c(=O)cc(N4CCNCC4)nc3s2)c1` [Example 14-C, 2-Amino-N-(5-(5-oxo-7-(piperazin-1-yl)-5H-[1,3,4]thiadiazolo[3,2-a]pyrimidin-2-yl)pyridin-3-yl)acetamide], the concentration for half-maximal inhibition (IC50) is 62 ± 10 nM. The same measure for `NCC(=O)Nc1cc(-c2nn3c(=O)cc(N4CCNCC4)nc3s2)ccn1` [Example 14-B, 2-amino-N-(4-(5-oxo-7-(piperazin-1-yl)-5H-[1,3,4]thiadiazolo[3,2-a]pyrimidin-2-yl)pyridin-2-yl)acetamide]: 53.6 ± 15.5 nM.

The IC50 is the concentration that inhibits the measured activity by half.
